Data set [1] relates to day 7 placental organoids. Briefly: Drug toxicity response, CellTiter-Glo luminescent cell viability, day 7 placental organoids. Particulars: Homo sapiens, read-out: IC50 (drug toxicity based on cell survival). From the text: It is well-established that ethical constraints hamper the testing of drugs on pregnant women. Furthermore, maternal drug usage is known to promote a range of conditions, such as fetal drug tolerance, antibiotic resistance, toxicity, obesity and diabetes. While it is rendered safe to use certain drugs during pregnancy, the actual short as well as long-term effects of these drugs on fetal health cannot be currently studied. Therefore, as an application of the placental organoids systems in drug toxicity testing, these organoids were treated with commonly used compounds such as nicotine, acetaminophen, ibuprofen and lumiracoxib. […] Acetaminophen, also known as paracetamol, is usually considered as a safe antipyretic and analgesic medicine for pregnant women. However, acetaminophen and its metabolites easily cross the placenta and are potentially toxic as it has previously been detected in the fetus and is implicated in adverse birth and later life health outcomes. Nonsteroidal anti-inflammatory drugs (NSAIDs) such as Ibuprofen are the most commonly used medications for the treatment of pain, inflammation and fever during pregnancy. Ibuprofen readily enters fetal circulation, raising concerns about its long-term effects on fetal health and development. While the use of another NSAID, Lumiracoxib, has not been adequately investigated. […] Therefore, it has been recommended that it should not be used during the first two trimesters of pregnancy unless it justifies the potential risk to the fetus. Day 7and day 15 placental organoids were treated with increasing doses of drugs such as nicotine, acetaminophen, ibuprofen and lumiracoxib. The drug toxicity and IC50 value of the drugs was determined based on cell survival at 24 and 48 hours post drug exposure.
Placental organoids (12-15 organoids/well) were treated with different concentrations of nicotine (0.1, 0.5, 1, 5, 10, 20 mg/mL), acetaminophen (0.01, 0.1, 1, 5, 10, 20 mM), ibuprofen (25, 50, 100, 200, 400, 800 mg/mL) and lumiracoxib (0.01, 0.1, 1, 5, 10, 20 mM) for 24 and 48 hours to determine the IC50 value for drug toxicity. Post-incubation with the drugs for 24 and 48 hours respectively, the cell viability was determined using a CellTiter-Glo Luminescent cell viability assay (Promega #G7570). Briefly, cell supernatant was mixed with equal volume of CellTiter-Glo reagent for 2 minutes on an orbital shaker, incubated for 10 minutes in dark at room temperature and then the luminescence was determined using a Tecan plate reader (Tecan Spark).

The conditions of data set [2]: crosses the placental barrier; cited from earlier work.

Read-outs that look alike come from different tables or passages of the source.

`CC(=O)Nc1ccc(O)cc1` [acetaminophen]: the IC50 in data set [1] (24 hours post drug exposure) stood at 2680 µM; in data set [1] (48 hours post drug exposure), 1110 µM.
For `CC(C)Cc1ccc(C(C)C(=O)O)cc1` (centres unmarked) [ibuprofen], the half-maximal inhibitory concentration (IC50) in data set [1] (48 hours post drug exposure) was determined as 45300 µg/mL.
Consider `Cc1ccc(Nc2c(F)cccc2Cl)c(CC(=O)O)c1` [lumiracoxib], for which the IC50 worked out at 841 µM in data set [1] (24 hours post drug exposure) and 220 µM in data set [1] (48 hours post drug exposure).
As to `CN1CCCC1c1cccnc1` (centres unmarked) [nicotine], the concentration for half-maximal inhibition (IC50) in data set [1] (24 hours post drug exposure) stood at 5700 µg/mL; in data set [1] (48 hours post drug exposure), 1190 µg/mL. Moreover, the “fetal concentration higher than mother” value in data set [2] is listed as 15%.

The values are drawn from US20250271419A1, “PLACENTA ORGANOID ON-A-CHIP AND USE THEREOF” (THE REGENTS OF THE UNIVERSITY OF CALIFORNIA, priority 2024, published 2025).
